# Measurements taken from patent publication US10597388B2, “Pyridazinone herbicides” (FMC CORPORATION, priority 2014, dated 2020).
# Experiments:
# Type in all cases: in vivo
# [1] = system: waterhemp_RES1 (ALS & Triazine resistant common waterhemp, Amaranthus rudis); assay: Test E greenhouse herbicide test, postemergence
# Description: (§1) At the same time, plants from these crop and weed species and also waterhemp_RES1, (ALS & Triazine resistant common waterhemp, Amaranthus rudis), and waterhemp_RES2, (ALS & HPPD resistant common waterhemp, Amaranthus rudis) were planted in pots containing Redi-Earth® planting medium (Scotts Company, 14111 Scottslawn Road, Marysville, Ohio 43041) comprising spaghnum peat moss, vermiculite, wetting agent and starter nutrients were treated with postemergence applications of test chemicals formulated in the same manner. Plants ranged in height from 2 to 18 cm for postemergence treatments (1- to 4-leaf stage). Treated plants and controls were maintained in a greenhouse for 14 to 21 d, after which time all species were compared to controls and visually evaluated. Plant response ratings, summarized in Table E, are based on a scale of 0 to 100 where 0 is no effect and 100 is complete control. A dash (-) response means no test result.
# [2] = system: waterhemp_RES2 (ALS & HPPD resistant common waterhemp, Amaranthus rudis); assay: Test E greenhouse herbicide test, postemergence
# Description: as §1
# [3] = system: nightshade (eastern black nightshade, Solanum ptycanthum); assay: Test E greenhouse herbicide test, pre- and postemergence; settings: Preemergence
# Excerpt: (§2) Seeds of plant species selected from corn (Zea mays), soybean (Glycine max), velvetleaf (Abutilon theophrasti), lambsquarters (Chenopodium album), wild poinsettia (Euphorbia heterophylla), pigweed, palmer (palmer pigweed, Amaranthus palmeri), waterhemp (common waterhemp, Amaranthus rudis), surinam grass (Brachiaria decumbens), crabgrass, large (large crabgrass, Digitaria sanguinalis), crabgrass, Brazilian (Brazilian crabgrass, Digitaria horizontalis), panicum, fall (fall panicum, Panicum dichotomiflorum), foxtail, giant (giant foxtail, Setaria faberii), foxtail, green (green foxtail, Setaria viridis), goosegrass (Eleusine indica), johnsongrass (Sorghum halepense), ragweed (common ragweed, Ambrosia elatior), barnyardgrass (Echinochloa crus-galli), sandbur (southem sandbur, Cenchrus echinatus), arrowleaf sida (Sida rhombifolia), Italian ryegrass (Lolium multiflorum), dayflower (Virginia (VA) dayflower, Commelina virginica), field bindweed (Convolvulus arvensis), momingglory (Ipomoea coccinea), nightshade (eastern black nightshade, Solanum ptycanthum), kochia (Kochia scoparia), nutsedge, yellow (yellow nutsedge, Cyperus esculentus), horseweed (Conyza canadensis), and beggarticks (hairy beggarticks, Bidens pilosa), were planted into a silt loam soil and treated preemergence with test chemicals formulated in a non-phytotoxic solvent mixture which included a surfactant.
# as §1
# soybean (Glycine max) = assay: as above
# Excerpt: as §2, §1
# [4] = system: johnsongrass (Sorghum halepense); assay: as above; settings: Preemergence
# Excerpt: as §2, §1
# [5] = system: sandbur (southem sandbur, Cenchrus echinatus); assay: as above
# Excerpt: as §2, §1
# [6] = system: dayflower (Virginia (VA) dayflower, Commelina virginica); assay: as above
# Excerpt: as §2, §1
# [7] = system: lambsquarters (Chenopodium album); assay: as above; settings: Preemergence
# Excerpt: as §2, §1
# [8] = system: surinam grass (Brachiaria decumbens); assay: as above; settings: Preemergence
# Excerpt: as §2, §1
# [9] = system: arrowleaf sida (Sida rhombifolia); assay: as above
# Excerpt: as §2, §1
# [10] = system: barley, winter (winter barley, Hordeum vulgare); assay: Test D controlled growth environment herbicide test, pre- and postemergence
# In short: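 Species sown in silt loam and sprayed preemergence, or grown in peat-based medium to 2–18 cm (1- to 4-leaf stage) and sprayed postemergence, with compounds in non-phytotoxic solvent plus surfactant. Visual injury scored versus controls after 14–21 d in a controlled environment, 0 (no effect) to 100 (complete control).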
# [11] = 16 g ai/ha, visual, scale 0 no effect to 100 complete control
# [12] = 31 g ai/ha, visual, scale 0 no effect to 100 complete control
# [13] = 62 g ai/ha, scale 0 to 100 (0 no effect, 100 complete control)
# [14] = 125 g ai/ha, scale 0 to 100 (0 no effect, 100 complete control)
# [15] = 250 g ai/ha, scale 0 to 100 (0 no effect, 100 complete control)
# [16] = 16 g ai/ha, scale 0 to 100, 0 no effect, 100 complete control
# [17] = 31 g ai/ha, scale 0 to 100, 0 no effect, 100 complete control
# [18] = 250 g ai/ha, visual, scale 0 no effect to 100 complete control
# [19] = 62 g ai/ha, Postemergence, scale 0 to 100 (0 no effect, 100 complete control)
# [20] = 62 g ai/ha, Preemergence, scale 0 to 100 (0 no effect, 100 complete control)
# [21] = 125 g ai/ha, Postemergence, scale 0 to 100 (0 no effect, 100 complete control)
# [22] = 125 g ai/ha, Preemergence, scale 0 to 100 (0 no effect, 100 complete control)
# [23] = 250 g ai/ha, Postemergence, scale 0 to 100 (0 no effect, 100 complete control)
# [24] = Postemergence, 16 g ai/ha, visual, scale 0 no effect to 100 complete control
# [25] = Postemergence, 31 g ai/ha, visual, scale 0 no effect to 100 complete control
# [26] = Preemergence, 16 g ai/ha, scale 0 to 100, 0 no effect, 100 complete control
# [27] = Preemergence, 31 g ai/ha, scale 0 to 100, 0 no effect, 100 complete control
# [28] = Preemergence, 250 g ai/ha, visual, scale 0 no effect to 100 complete control
# [29] = 125 g ai/ha, visual, scale 0 no effect to 100 complete control
# [30] = Preemergence, 125 g ai/ha, visual, scale 0 no effect to 100 complete control
# [31] = Postemergence, 31 g ai/ha, scale 0 to 100 (0 no effect, 100 complete control)
# [32] = Postemergence, 125 g ai/ha, visual rating on scale 0 (no effect) to 100 (complete control), 14 to 21 d
# [33] = Postemergence, 250 g ai/ha, scale 0 to 100 (0 no effect, 100 complete control)
# [34] = Preemergence, 62 g ai/ha, scale 0 to 100 (0 no effect, 100 complete control)
# [35] = Preemergence, 125 g ai/ha, scale 0 to 100 (0 no effect, 100 complete control)
# [36] = Preemergence, 250 g ai/ha, scale 0 to 100 (0 no effect, 100 complete control)
# [37] = postemergence, 62 g ai/ha, scale 0 to 100, 0 no effect, 100 complete control
smiles,measurement,setting,value
"Cc1ccc2sc(C)c(-c3c(O)c(C)nn(C)c3=O)c2c1 [Compound 1, 4-(2,5-dimethylbenzo[b]thien-3-yl)-5-hydroxy-2,6-dimethyl-3(2H)-pyridazinone]","Plant response rating, Waterhemp_RES1",[1]; [11],75
same,"Plant response rating, Waterhemp_RES1",[1]; [12],80
same,"Plant response rating, Waterhemp_RES1",[1]; [13],90
same,"Plant response rating, Waterhemp_RES1",[1]; [14],98
same,"Plant response rating, Waterhemp_RES1",[1]; [15],100
same,"Plant response rating, Waterhemp_RES2",[2]; [11],0
same,"Plant response rating, Waterhemp_RES2",[2]; [12],75
same,"Plant response rating, Waterhemp_RES2",[2]; [13],70
same,"Plant response rating, Waterhemp_RES2",[2]; [14],70
same,"Plant response rating, Waterhemp_RES2",[2]; [15],75
same,"Plant response rating, Nightshade",[3]; [13],95
same,"Plant response rating, Nightshade",[3]; [14],100
same,"Plant response rating, Nightshade",[3]; [16],80
same,"Plant response rating, Nightshade",[3]; [17],90
same,"Plant response rating, Nightshade",[3]; [18],100
same,"Plant response rating, Soybean",soybean (Glycine max); [19],10
same,"Plant response rating, Soybean",soybean (Glycine max); [20],15
same,"Plant response rating, Soybean",soybean (Glycine max); [21],15
same,"Plant response rating, Soybean",soybean (Glycine max); [22],40
same,"Plant response rating, Soybean",soybean (Glycine max); [23],20
same,"Plant response rating, Soybean",soybean (Glycine max); [24],0
same,"Plant response rating, Soybean",soybean (Glycine max); [25],0
same,"Plant response rating, Soybean",soybean (Glycine max); [26],0
same,"Plant response rating, Soybean",soybean (Glycine max); [27],0
same,"Plant response rating, Soybean",soybean (Glycine max); [28],75
same,"Plant response rating, Johnsongrass",[4]; [13],0
same,"Plant response rating, Johnsongrass",[4]; [16],0
same,"Plant response rating, Johnsongrass",[4]; [17],0
same,"Plant response rating, Johnsongrass",[4]; [29],30
same,"Plant response rating, Johnsongrass",[4]; [18],40
same,"Plant response rating, Sandbur",[5]; [19],30
same,"Plant response rating, Sandbur",[5]; [20],20
same,"Plant response rating, Sandbur",[5]; [21],30
same,"Plant response rating, Sandbur",[5]; [22],70
same,"Plant response rating, Sandbur",[5]; [23],30
same,"Plant response rating, Sandbur",[5]; [24],0
same,"Plant response rating, Sandbur",[5]; [25],10
same,"Plant response rating, Sandbur",[5]; [26],0
same,"Plant response rating, Sandbur",[5]; [27],10
same,"Plant response rating, Sandbur",[5]; [28],70
same,"Plant response rating, Dayflower, VA",[6]; [19],0
same,"Plant response rating, Dayflower, VA",[6]; [20],20
same,"Plant response rating, Dayflower, VA",[6]; [21],30
same,"Plant response rating, Dayflower, VA",[6]; [23],50
same,"Plant response rating, Dayflower, VA",[6]; [24],0
same,"Plant response rating, Dayflower, VA",[6]; [25],0
same,"Plant response rating, Dayflower, VA",[6]; [26],0
same,"Plant response rating, Dayflower, VA",[6]; [27],0
same,"Plant response rating, Dayflower, VA",[6]; [30],15
same,"Plant response rating, Dayflower, VA",[6]; [28],25
same,"Plant response rating, Lambsquarters",[7]; [13],98
same,"Plant response rating, Lambsquarters",[7]; [16],65
same,"Plant response rating, Lambsquarters",[7]; [17],65
same,"Plant response rating, Lambsquarters",[7]; [29],100
same,"Plant response rating, Lambsquarters",[7]; [18],100
same,"Plant response rating, Surinam Grass",[8]; [13],50
same,"Plant response rating, Surinam Grass",[8]; [14],80
same,"Plant response rating, Surinam Grass",[8]; [16],0
same,"Plant response rating, Surinam Grass",[8]; [17],25
same,"Plant response rating, Surinam Grass",[8]; [18],75
same,"Plant response rating, Arrowleaf Sida",[9]; [19],70
same,"Plant response rating, Arrowleaf Sida",[9]; [20],65
same,"Plant response rating, Arrowleaf Sida",[9]; [21],70
same,"Plant response rating, Arrowleaf Sida",[9]; [23],80
same,"Plant response rating, Arrowleaf Sida",[9]; [24],30
same,"Plant response rating, Arrowleaf Sida",[9]; [25],50
same,"Plant response rating, Arrowleaf Sida",[9]; [26],0
same,"Plant response rating, Arrowleaf Sida",[9]; [27],0
same,"Plant response rating, Arrowleaf Sida",[9]; [30],75
same,"Plant response rating, Arrowleaf Sida",[9]; [28],80
same,"Plant response rating, Barley, Winter",[10]; [31],5
same,"Plant response rating, Barley, Winter",[10]; [32],5
same,"Plant response rating, Barley, Winter",[10]; [33],10
same,"Plant response rating (scale of 0 to 100), Barley, Winter","[10]; Preemergence, 31 g ai/ha",0
same,"Plant response rating, Barley, Winter",[10]; [34],0
same,"Plant response rating, Barley, Winter",[10]; [35],0
same,"Barley, Winter plant response rating",[10]; [36],0
same,"Plant response rating, Barley, Winter",[10]; [37],5
CC(=O)Oc1c(C)nn(C)c(=O)c1-c1ccc(F)c2ccccc12 [Compound 90],"Plant response rating, Waterhemp_RES1",[1]; [11],50
same,"Plant response rating, Waterhemp_RES1",[1]; [12],50
same,"Plant response rating, Waterhemp_RES1",[1]; [14],80
same,"Plant response rating, Waterhemp_RES2",[2]; [11],50
same,"Plant response rating, Waterhemp_RES2",[2]; [12],50
same,"Plant response rating, Waterhemp_RES2",[2]; [14],70
same,"Plant response rating, Soybean",soybean (Glycine max); [21],60
same,"Plant response rating, Soybean",soybean (Glycine max); [24],20
same,"Plant response rating, Soybean",soybean (Glycine max); [25],30
same,"Plant response rating, Sandbur",[5]; [21],50
same,"Plant response rating, Sandbur",[5]; [24],40
same,"Plant response rating, Sandbur",[5]; [25],40
same,"Plant response rating, Dayflower, VA",[6]; [19],80
same,"Plant response rating, Dayflower, VA",[6]; [21],90
same,"Plant response rating, Dayflower, VA",[6]; [24],40
same,"Plant response rating, Dayflower, VA",[6]; [25],60
same,"Plant response rating, Arrowleaf Sida",[9]; [19],90
same,"Plant response rating, Arrowleaf Sida",[9]; [21],90
same,"Plant response rating, Arrowleaf Sida",[9]; [24],70
same,"Plant response rating, Arrowleaf Sida",[9]; [25],80
same,"Barley, Winter plant response rating",[10]; [31],0
same,"Plant response rating, Barley, Winter",[10]; [32],25
same,"Plant response rating, Barley, Winter",[10]; [33],35
same,"Plant response rating (scale of 0 to 100), Barley, Winter","[10]; Preemergence, 31 g ai/ha",0
same,"Plant response rating, Barley, Winter",[10]; [34],0
same,"Plant response rating, Barley, Winter",[10]; [35],15
same,"Plant response rating, Barley, Winter",[10]; [36],30
same,"Plant response rating, Barley, Winter",[10]; [37],15
